Test systems include OVCAR-8 ovarian; HCC-2998 colon; PC-3 prostate; CAKI-1 renal; HOP-92 NSCLC; ACHN renal; EKVX NSCLC; SR leukemia; LOX IMVI melanoma; OVCAR-4 ovarian.
Holding throughout (assay): NCI-60 cell line screen, 48 h

In PubChem BioAssay (NCI) one finds GI50 and TGI data, which are given here for seven compounds.

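Compound exposure: 48 hours, 5 concentrations, 96-well plates. Abbreviation: GI50, concentration required for 50% inhibition of growth. The concentration for full growth arrest is given as TGI.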

Take `COc1cc(-c2cn(C)c(=O)c(C)c2C)cc(OC)c1CN1CC[C@H](N2CCN(c3ccc(N[C@H]4CCC(=O)NC4=O)cc3F)CC2)C(F)(F)C1`: the GI50 in the test on OVCAR-8 ovarian was 11.2 µM; in the test with HCC-2998 colon, 12.9 µM; in the test on PC-3 prostate, 11 µM; with CAKI-1 renal, 6.87 µM; with HOP-92 NSCLC it was 8.81 µM; in the test with ACHN renal, 15.2 µM. Besides, the GI50 is 12.7 µM with EKVX NSCLC, 6.7 µM in the test with SR leukemia, 11.5 µM with LOX IMVI melanoma and 12.1 µM in the test on OVCAR-4 ovarian. Moreover, the TGI is 25.7 µM in the test with OVCAR-8 ovarian; 25.8 µM with HCC-2998 colon; 47.1 µM in the test on PC-3 prostate; 33.4 µM with CAKI-1 renal; 24.8 µM with HOP-92 NSCLC; 28.8 µM in the test on ACHN renal. The TGI was 34.9 µM in the test with EKVX NSCLC, 51 µM in the test on SR leukemia, 24.9 µM in the test with LOX IMVI melanoma and 26.9 µM with OVCAR-4 ovarian.
Consider `COc1ccc2c(c1)C=CC(C#N)N2C(=O)c1ccccc1` (stereo not given), for which the GI50 with OVCAR-8 ovarian was under 0.01 µM; in the test with HCC-2998 colon, 0.0129 µM; in the test with PC-3 prostate, under 0.01 µM; with CAKI-1 renal, under 0.01 µM; in the test with ACHN renal, 0.0411 µM; in the test on EKVX NSCLC, under 0.01 µM. For the same compound, the GI50 with SR leukemia is under 0.01 µM; in the test on LOX IMVI melanoma it was under 0.01 µM; in the test with OVCAR-4 ovarian, 0.0283 µM. In addition, the TGI is over 100 µM with OVCAR-8 ovarian; over 100 µM in the test with HCC-2998 colon; over 100 µM with PC-3 prostate; over 100 µM with CAKI-1 renal; 45.9 µM with HOP-92 NSCLC; over 100 µM in the test on ACHN renal. For the same compound, the TGI with EKVX NSCLC, in the test on SR leukemia, in the test with LOX IMVI melanoma and with OVCAR-4 ovarian was over 100 µM throughout.
Consider `CNC(=O)c1cc(Oc2ccc(NC(=O)Nc3ccc(Cl)c(OC(F)(F)F)c3)c(F)c2)ccn1`, for which the GI50 is 1.62 µM in the test with HCC-2998 colon; 1.48 µM with PC-3 prostate; 2.89 µM in the test on CAKI-1 renal; 1.53 µM with HOP-92 NSCLC; 1.33 µM in the test with ACHN renal; 1.55 µM in the test with EKVX NSCLC. The GI50 in the test on SR leukemia is 1.49 µM; with LOX IMVI melanoma, 1.76 µM; in the test on OVCAR-4 ovarian, 1.24 µM. The TGI in the test with HCC-2998 colon is 7.08 µM; in the test on PC-3 prostate, 19 µM; in the test with CAKI-1 renal, over 33.2 µM; with HOP-92 NSCLC, 16.8 µM; with ACHN renal, over 33.2 µM; with EKVX NSCLC, 23.6 µM. The TGI with SR leukemia is 7.99 µM; in the test on LOX IMVI melanoma, 25.2 µM; with OVCAR-4 ovarian, over 33.2 µM.
In the case of `O=C(Nc1cc(-c2ccccc2)[nH]n1)c1ccc(Cl)cc1`, the GI50 in the test on OVCAR-8 ovarian was 24.2 µM; with HCC-2998 colon, over 100 µM; with PC-3 prostate, 37.4 µM; in the test with CAKI-1 renal, 2.66 µM; in the test with HOP-92 NSCLC, 37.1 µM; with ACHN renal it was 5.27 µM. For the same compound, the GI50 with EKVX NSCLC was over 100 µM; in the test with SR leukemia, 5.65 µM; in the test on LOX IMVI melanoma it was 9.23 µM; with OVCAR-4 ovarian, over 100 µM. For the same compound, the TGI in the test with OVCAR-8 ovarian, in the test with HCC-2998 colon, in the test with PC-3 prostate, in the test on CAKI-1 renal, in the test with HOP-92 NSCLC and in the test with ACHN renal was over 100 µM throughout. Besides, the TGI in the test with EKVX NSCLC, with SR leukemia, in the test with LOX IMVI melanoma and in the test on OVCAR-4 ovarian was over 100 µM throughout.
Consider `COc1ccc(C2C(C#N)=C(N)OC3=C2CCCc2ccc(F)cc23)cc1OC` (stereo not given), for which the GI50 in the test on OVCAR-8 ovarian is 21.4 µM; with HCC-2998 colon, 15.6 µM; in the test on PC-3 prostate it was 19.5 µM; with CAKI-1 renal, 34.2 µM; with HOP-92 NSCLC, 17.1 µM; in the test on ACHN renal, 19.9 µM. Also, the GI50 in the test on EKVX NSCLC was 10.1 µM; in the test with SR leukemia, over 100 µM; in the test on LOX IMVI melanoma it was 21.9 µM; in the test with OVCAR-4 ovarian, 23 µM. The TGI in the test on OVCAR-8 ovarian came to 53.5 µM; in the test on HCC-2998 colon, 31.6 µM; with PC-3 prostate it was 38.8 µM; with CAKI-1 renal it was 65.3 µM; in the test on HOP-92 NSCLC it was 42.4 µM; in the test on ACHN renal, 41.7 µM. Besides, the TGI was 37.5 µM in the test on EKVX NSCLC, over 100 µM in the test with SR leukemia, 44.8 µM in the test with LOX IMVI melanoma and 68 µM in the test with OVCAR-4 ovarian.
On to `CCCSc1cc(Cl)nc(N)n1`, for which the GI50 is over 100 µM in the test with OVCAR-8 ovarian; over 100 µM in the test on HCC-2998 colon; over 100 µM in the test with PC-3 prostate; 90.7 µM in the test with CAKI-1 renal; 14.8 µM with HOP-92 NSCLC; over 100 µM in the test on ACHN renal. The GI50 with EKVX NSCLC, in the test on SR leukemia, with LOX IMVI melanoma and in the test with OVCAR-4 ovarian was over 100 µM in each case. Moreover, the TGI with OVCAR-8 ovarian, in the test with HCC-2998 colon, with PC-3 prostate, in the test with CAKI-1 renal, in the test with HOP-92 NSCLC and in the test with ACHN renal was over 100 µM in each case. In addition, the TGI in the test with EKVX NSCLC, in the test with SR leukemia, with LOX IMVI melanoma and in the test on OVCAR-4 ovarian was over 100 µM each time.
Turning to `CNC(=O)c1ccc(-c2cnc3ncc(Cc4ccc5ncccc5c4)n3n2)cc1F`, the GI50 was 52.4 µM in the test with OVCAR-8 ovarian; over 100 µM with HCC-2998 colon; over 100 µM with PC-3 prostate; over 100 µM in the test on CAKI-1 renal; 8.54 µM in the test with HOP-92 NSCLC; over 100 µM in the test with ACHN renal. The GI50 in the test on SR leukemia, in the test on LOX IMVI melanoma and in the test on OVCAR-4 ovarian was over 100 µM in each case. Further, the TGI is over 100 µM with OVCAR-8 ovarian; over 100 µM in the test with HCC-2998 colon; over 100 µM in the test with PC-3 prostate; over 100 µM in the test on CAKI-1 renal; 91.5 µM in the test on HOP-92 NSCLC; over 100 µM with ACHN renal. Also, the TGI with SR leukemia, with LOX IMVI melanoma and with OVCAR-4 ovarian was over 100 µM in each case.
